Source: PMC5715147, “Albumin/vaccine nanocomplexes that assemble in vivo for combination cancer immunotherapy” (Nature Communications, 2017)
Values belong to the compound of their own block, whether it stands above or below them.

What was measured:
[1] = rhesus monkey, in vivo; cited from earlier work
Source text: Here we took a clinically oriented perspective to develop AlbiVax by first repurposing a clinically practiced EB that binds to albumin at binding site I[33], and then conjugating molecular vaccines with an EB derivative. The resulting albumin/AlbiVax nanocomplexes that assemble in vivo were efficiently delivered to LNs and induced potent and durable anti-cancer immunity. EB and derivatives have been developed for preclinical and clinical LN identification[34]–[39]. They have excellent clinical safety profiles[36],[39], and rhesus monkeys survived 25 mg kg^−1 systemically injected EB[40], a dos ... || Safe and robust T cell vaccines would hold great promise for combination cancer immunotherapy. Locally administered vaccines must provide efficient delivery to LNs for effective antitumor immunomodulation. Nanovaccines are a promising approach for efficient vaccine delivery to LNs, and quite a few have been developed preclinically, yet the clinical translation of these nanoformulas has been hindered by limitations in their safety, suitability for reproducible large-scale manufacturing, and in vivo integrity. We chose albumin, one of the most successful carriers of nanomedicines in the clinic, ...

[2] = Biodistribution in resected organs by γ counting; design: species or system FVB mice; details: mouse, in vivo, sc
Protocol: The above mice were killed at specified time points. Organs and blood were collected and wet weighed. The collected organs and blood, together with a series of standard solutions, were measured for ^64Cu radioactivity on a gamma counter (Wallac Wizard 1480, PerkinElmer). The radioactivity of organs and blood was converted to calculate the percentages of the injected dose (%ID) in organs of interest and the percentages of the injected dose per gram of tissue (%ID/g).

[3] = PET quantification of vaccine delivery to draining LNs after s.c. injection; assay type: in vivo, FVB mice; details: 64Cu-labeled, s.c. at tail base
Protocol: AlbiVax was radiolabeled with ^64Cu for PET. To label ^64Cu via chelation, a NOTA-functionalized MEB (NMEB) was synthesized and conjugated with vaccines. […] The reaction was shaken for 0.5 h at 37 °C. Thereafter, the radiochemical purity was determined using iTLC plates (Fisher Scientific), developed in 0.1 M citric acid (pH 5).
Female FVB mice (6–8 weeks) were used in all PET imaging studies in naive mice. C57BL/6 mice (6–8 weeks) were used in PET imaging of tumor-bearing mice. Mice were anesthetized using isoflurane/O^2 (2% v v^−1) before injection. Anesthetized mice were injected s.c. at the base of tail with ^64Cu-labeled vaccines (4.44−5.55 MBq/120–150 μCi each mouse) in PBS (100 μL). At indicated time points post injection, mice were scanned on an Inveon DPET scanner (Siemens Medical Solutions, Malvern, PA). PET images were reconstructed without correction for attenuation or scattering using a three-dimensional ordered subsets expectation maximization algorithm. ASI Pro VM^TM software was used for image analysis. Regions of interest (ROI) were drawn on LNs to calculate the %ID/g.

[4] = human, in vivo; cited from earlier work

Compound: Cc1cc(-c2ccc(/N=N/c3ccc4c(S(=O)(=O)O)cc(S(=O)(=O)O)c(N)c4c3O)c(C)c2)ccc1/N=N/c1ccc2c(S(=O)(=O)O)cc(S(=O)(=O)O)c(N)c2c1O [EB, Evans blue]
systemically injected dose survived [1]: 25 mg/kg

Compound: CpG: CpG1826 (TCCATGACGTTCCTGACGTT), phosphorothioate oligodeoxynucleotide, TLR9 agonist
%ID/g in IN LNs on day 5 [2]: 2.5 ± 1.3 %ID/g
percent injection dose per gram of tissue in IN LNs on day 3 [2]: 8.3 ± 4.7 %ID/g
injection dose (%ID) delivered to inguinal (IN) and axillary (AX) LNs ([3]; 4.4–5.5 Mbq, decay-corrected PET over 3 days, n = 4–8): < 0.3 %ID

LN delivery (in words) ([3]; PET): no detectable
Compound: CC(C)C[C@H](NC(=O)[C@H](Cc1c[nH]c2ccccc12)NC(=O)[C@@H](NC(=O)[C@H](Cc1ccccc1)NC(=O)[C@H](Cc1ccccc1)NC(=O)[C@H](CC(=O)O)NC(=O)[C@H](Cc1ccc(O)cc1)NC(=O)[C@@H](NC(=O)[C@H](CO)NC(=O)[C@@H](N)CS)C(C)C)C(C)C)C(=O)O [Trp2]

Compound: albumin
half-life [4]: over 20 days
